Laboratory results: patent US20160220630A1, “AGONISTS OF GUANYLATE CYCLASE USEFUL FOR THE TREATMENT OF OPIOID INDUCED DYSFUNCTIONS” (priority 2013, published 2016)
“Also recorded” adds a separate entry of the source. Positions of bridges follow the written chain, without caps; N, C: chain ends. Non-standard residues stand in square brackets, D forms with d. Residues, ends and D or L forms follow the SMILES beside them.

How the values were obtained:
T84 cells = assay: Short circuit current (Isc) in Ussing chamber across T84 cells monolayer
rat jejunum = assay: Short circuit current (Isc) in Ussing chamber across rat jejunum tissue; settings: for inhibition of SP-333-stimulated Isc: inhibitor pretreatment 5 min, 1 μM SP-333
[1] = tested on: female Sprague-Dawley rats; assay: GI transit (charcoal meal) after single oral SP-333 in opioid naïve rats; type: in vivo, rat
Protocol: FIGS. 7A-B is a series of graphs showing that oral treatment with SP-333 increases GI transit in rats. […] Panel A is a bar graph showing that SP-333 increases GI transit by 5.6%, 13%, and 23% at 0.05, 0.5, and 5 mg/kg, respectively in opioid naïve animals. Panel B is a distribution graph showing the data of each individual animal.
(§1) Effect of SP-333 on opioid-induced GI transit delay in rats: The ability of opioids to delay GI transit in rats was tested by either administering 0 (vehicle) 0.25, 1 and 2.5 mg/kg of morphine or 0 (vehicle), 0.25, 2.5 and 5 mg/kg of methadone (1.5 ml/kg dose volume) by IP injection. Water served as vehicle control. Ten minutes later, a 2 mL charcoal meal consisting of 10% activated charcoal (Sigma-Aldrich, St. Louis, Mo.) and 10% gum Arabic (Sigma-Aldrich, St. Louis, Mo.) in water was administered via oral gavage. Rats were euthanized 10 min after the charcoal meal via IP injection of 150 mg/kg Beuthanasia-D solution (sodium pentobarbital, 390 mg/mL). The small intestine was removed and the total length from the pyloric sphincter to the ileocecal junction was recorded, as well as the distance travelled by the leading edge of the charcoal. Intestinal transit was determined by calculating the ratio (expressed as a percentage) of the distance between the pyloric sphincter and the leading edge of the charcoal to the distance between the pyloric sphincter and the ileocecal junction.

[2] = tested on: female Sprague-Dawley rats; assay: Reversal of morphine-induced delayed GI transit by oral SP-333; type: in vivo, rat
Protocol: as §1
To evaluate the ability of SP-333 to reverse morphine induced delayed GI transit, animals were administered 2.5 mg/kg of morphine by IP injection followed immediately by oral gavage of 0 (vehicle), 0.5, 2.5, 5 and 50 mg/kg of SP-333 (1.5 ml/kg dose volume). Water served as vehicle control. Charcoal meal was administered ten minutes later and animals were euthanized ten minutes after the charcoal meal and intestinal transit was calculated as described above.

[3] = tested on: female Sprague-Dawley rats; assay: Reversal of methadone-induced delayed GI transit by oral SP-333; type: in vivo, rat
Protocol: as §1
To evaluate the ability of SP-333 to reverse methadone induced delayed GI transit, animals were administered 2.5 mg/kg of methadone by IP injection. Ten minutes later, an oral gavage of 0 (vehicle), 0.1, 0.5, 2.5, 5 and 50 mg/kg of SP-333 (1.5 ml/kg dose volume) was administered followed immediately by a 2 mL oral gavage of the charcoal meal. Ten minutes after the charcoal meal, animals were euthanized and intestinal transit was calculated as described above.

[4] = tested on: female Sprague-Dawley CD rats; assay: GI transit delay induced by repeated methadone administration; type: in vivo, rat; settings: for GI transit after repeated methadone dosing (words): repeated daily IP methadone (5 then 2.5 mg/kg)
Protocol: The ability of SP-333 to alleviate GI transit delay induced by repeated methadone administration was also evaluated in the similar manner. Female Sprague-Dawley CD rats 7 to 8 weeks of age (n=7/group) received via IP injection 16 doses of methadone (once daily; 7 doses @ 5 mg/kg and 9 doses @ 2.5 mg/kg). Ten minutes following each methadone dose, each group received an oral gavage of vehicle, 2.5, and 5 mg/kg of SP-333. At the end of the dosing regimen, animals were fasted overnight and GI transit was evaluated as described above.

[5] = tested on: female Sprague-Dawley CD rats; assay: Methadone-induced constipation (fecal pellet output); type: in vivo, rat
Protocol: Effect of SP-333 on methadone-induced constipation in rats: To identify the methadone dose that induces constipation in rats, female Sprague-Dawley CD rats 7 to 8 weeks of age (n=6/group) were administered 0 (vehicle), 2.5, 5, and 7.5 mg/kg of methadone (1.5 ml/kg dose volume) by IP injection once a day for 5 days. Fecal pellets were collected at 4 h intervals during the light cycle and average number of pellets was recorded for each group during the course of the study following daily dose administrations of methadone.
To evaluate the ability of SP-333 to relieve methadone-induced constipation, female Sprague-Dawley CD rats 7 to 8 weeks of age (n=7/group) were administered 5 mg/kg of methadone (or vehicle) each day for 7 days via IP injection to induce constipation. Ten minutes following the IP dose each day, an oral gavage of 2.5, and 5 mg/kg of SP-333 or vehicle (buffer) was administered. Fecal pellets were collected at 4 h intervals during the light cycle and average number of pellets recorded for each group during the course of the study following daily administration of vehicle, methadone or combination of methadone and SP-333.

[6] = tested on: female Sprague-Dawley rats; assay: Opioid-induced GI transit delay after single IP opioid dose (charcoal meal); type: in vivo, rat
Protocol: Animals: All study procedures were conducted under a study outline approved by the Institutional Animal Care and Use Committee of MB Research Labs (Spinnerstown, Pa.) or Lampire Biological Laboratories (Pipersville, Pa.). Seven to eight week old female Sprague-Dawley rats [Crl:CD(SD)], weighing between ˜180-210 grams, were obtained from Charles River Laboratories and allowed to acclimate for a week. Animals were maintained on a 12 hour light-dark cycle. For intestinal tissue collection and evaluation of GI transit, rats were fasted for at least 18 hours before the experiment, with free access to water.
as §1

[7] = 5 μM methadone apical 5 min, then 1 μM SP-333
[8] = 5 μM morphine apical 5 min, then 1 μM SP-333

## O=C(O)c1ccc(/C=C2\SC(=S)N(c3cccc(C(F)(F)F)c3)C2=O)cc1 [CFTRinh172]
T84 cells; 10 μM CFTRinh172, compared with 1 μM SP-333 alone
  suppression in SP-333-stimulated Isc: 80%
Rat jejunum
  inhibition of SP-333-stimulated Isc: less compared to that detected in T84 cells

## [Cl][Cd][Cl] [CdCl2]
T84 cells; CdCl2 300 μM or mPKI 3.2 μM, 1 μM SP-333
  decrease in SP-333-stimulated Isc: No appreciable decrease; also recorded: minimal effect
Rat jejunum
  inhibition of SP-333-stimulated Isc: minimal effect

## COC(=O)[C@@]1(OC)C[C@H]2O[C@]1(C)n1c3ccccc3c3c4c(c5c6ccccc6n2c5c31)C(=O)N(C)C4 [PKG-II inhibitor]
T84 cells; PKG-II inhibitor 4 μM, 1 μM SP-333
  suppression of relative SP-333-stimulated Isc: approximately 35%

## CC(C)C[C@@H]1NC(=O)[C@H](CCC(=O)O)NC(=O)[C@@H](NC(=O)[C@H](CCC(=O)O)NC(=O)[C@H](CC(=O)O)NC(=O)[C@H](N)CC(N)=O)CSSC[C@@H]2NC(=O)[C@H](C)NC(=O)[C@H](C(C)C)NC(=O)[C@H](CC(N)=O)NC(=O)[C@H](C(C)C)NC(=O)[C@H](CSSC[C@@H](C(=O)N[C@H](CC(C)C)C(=O)O)NC(=O)CNC(=O)[C@H]([C@@H](C)O)NC2=O)NC1=O [SP-333, dAsn^1-Asp^2-Glu^3-Cys^4-Glu^5-Leu^6-Cys^7-Val^8-Asn^9-Val^10-Ala^11-Cys^12-Thr^13-Gly^14-Cys^15-dLeu^16] (H-[dN]DECELCVNVACTGC[dL]-OH; disulfide 4-12, 7-15)
[1]; SP-333 0.05 mg/kg single oral gavage
  increase in GI (small intestinal) transit compared to vehicle controls: 5.6%
[1]; SP-333 0.5 mg/kg single oral gavage
  increase in GI (small intestinal) transit compared to vehicle controls: 13%
[1]; SP-333 5 mg/kg single oral gavage
  increase in GI (small intestinal) transit compared to vehicle controls: 23%
T84 cells; SP-333 0.01-10 μM apical
  increase in Isc (chloride currents): concentration-dependent increase in Isc approaching saturation at 10 μM
[2]; morphine 2.5 mg/kg IP + SP-333 0.5 mg/kg oral
  GI transit in morphine-treated rats: 27%
[2]; morphine 2.5 mg/kg IP + SP-333 2.5 mg/kg oral
  GI transit in morphine-treated rats: 37%
[2]; morphine 2.5 mg/kg IP + SP-333 5 mg/kg oral
  GI transit in morphine-treated rats: 46%
[2]; morphine 2.5 mg/kg IP + SP-333 50 mg/kg oral
  GI transit in morphine-treated rats: 48%
[2]; morphine 2.5 mg/kg IP, SP-333 oral
  SP-333 dose sufficient to relieve the effect of morphine on GI transit: 5 mg/kg
[2]; orally administered SP-333
  delay in GI transit caused by morphine: completely restored the delay in GI transit
[3]; methadone 2.5 mg/kg IP + SP-333 0.5 mg/kg oral
  GI transit in methadone-treated rats: 40%
[3]; methadone 2.5 mg/kg IP + SP-333 2.5 mg/kg oral
  GI transit in methadone-treated rats: 39%
[3]; methadone 2.5 mg/kg IP + SP-333 5 mg/kg oral
  GI transit in methadone-treated rats: 44%
[3]; methadone 2.5 mg/kg IP + SP-333 50 mg/kg oral
  GI transit in methadone-treated rats: 52%
[3]; methadone 2.5 mg/kg IP, SP-333 oral
  SP-333 dose sufficient to relieve the effect of methadone on GI transit: 5 mg/kg
[3]; orally administered SP-333
  delay in GI transit caused by methadone: completely restored the delay in GI transit
[4]; repeated daily IP methadone (5 then 2.5 mg/kg) + SP-333 2.5 and 5 mg/kg oral
  GI transit delay after repeated methadone dosing: normalized GI transit; also recorded: relieved the GI-transit delay; also recorded: statistically significant improvement in GI transit delay
Rat jejunum; SP-333 0.01-10 μM apical
  increase in Isc (chloride currents): concentration-dependent increase in Isc approaching saturation at 10 μM
[5]; methadone 5 mg/kg IP + SP-333 2.5 mg/kg oral, once daily 7 days
  fecal pellet count compared to the methadone dosed group without SP-333: threefold increase; also recorded: significantly relieved methadone-induced constipation
[5]; methadone 5 mg/kg IP + SP-333 2.5 and 5 mg/kg oral, once daily 7 days
  fecal output / average number of pellets: partially restored fecal output; also recorded: higher compared to the methadone dosed group

## CCC(=O)C(CC(C)N(C)C)(c1ccccc1)c1ccccc1 (stereo not shown) [methadone]
T84 cells; [7]
  effect of methadone pre-treatment on SP-333-stimulated Isc: no effect; also recorded: not adversely affected
[6]; IP
  methadone dose sufficient to significantly reduce GI transit: 2.5 mg/kg
[6]; methadone 2.5 mg/kg IP
  GI transit delay vs corresponding vehicle controls: 49%
[6]; methadone 0.25, 2.5 and 5 mg/kg IP
  effect of methadone on GI transit: significantly reduced GI transit; also recorded: statistically significant reduction in GI transit
[4]
  GI transit after repeated methadone dosing (words): significant delay in GI transit
[4]; listed as Methadone
  GI transit after repeated methadone dosing (words): significant reduction in GI transit
Rat jejunum; [7]
  effect of methadone pre-treatment on SP-333-stimulated Isc: no effect; also recorded: not adversely affected
[5]; daily IP methadone 2.5, 5 and 7.5 mg/kg
  effect of methadone on fecal output: drastically reduced daily fecal output; also recorded: statistically significant reduction in fecal output

## CN1CC[C@]23c4c5ccc(O)c4O[C@H]2[C@@H](O)C=C[C@H]3[C@H]1C5 [morphine]
T84 cells; [8]
  effect of morphine pre-treatment on SP-333-stimulated Isc: negligible effect; also recorded: not adversely affected
[6]; morphine 2.5 mg/kg IP single dose
  GI transit slowed by, compared to vehicle controls: 56%
[6]; morphine IP 0.25, 1.0 and 2.5 mg/kg
  effect of morphine on GI transit: significantly reduced GI transit
Rat jejunum; [8]
  effect of morphine pre-treatment on SP-333-stimulated Isc: negligible effect; also recorded: not adversely affected
